Data on 1 molecule can be found in US10709724B2, “Methods of treating mitochondrial dysfunction” (Ecole Polytechnique Federale de Lausanne (EPFL), priority 2011, dated 2020).

This assay deals with SIRT1 MEF cells. Nature of the assay: PJ34 in SIRT1−/− MEFs. In kind it is cell-based, mice. The procedure:
Cell Culture, Transfection, Adenoviral Infection and Mitochondrial Characterization. HEK293T, MEF and C2C12 cells were cultured in DMEM (4.5 g/l glucose, 10% FCS). PARP-1^+/+ and PARP-1^−/− MEFs were prepared as described in (Menissier-de Murcia et al., 1997). SIRT1 and MEFs were kindly provided by Fred Alt (Chea et al., 2005). SIRT3 MER were established according to standard techniques from conditional SERT3^−/− mice. […] Mitochondrial charge determination was performed as described (Bai et al., 2001) and DNA strand breaks were quantified by TUNEL assays according to the manufacturer's instructions (Millipore).
Immunoprecipitation, SDS-PAGE, Western Blotting. […] Reactions were developed by enhanced chemiluminescence (Amersham, Little Chalfont, UK), PGC-1α, FOXO1 and Ndufa9 acetylation levels were analyzed by immunoprecipitation from cellular or nuclear lysates of tissues with anti-PGC-1α (Millipore), anti-FOXO1 (Cell Signaling, Danvers, Mass., USA) and anti-Ndufa9 (Abcam) antibody followed by Western blot using an acetyl-lysine antibody (Cell Signaling) that was normalized to total PGC-1a/FOXO1/Ndufa9 levels (Lagouge et al., 2006; Rodgers et al., 2005). […] All blots were quantified by densitometry using ImageJ software. […]

In the case of `CN(C)CC(=O)Nc1ccc2[nH]c(=O)c3ccccc3c2c1` [PJ34], the mitochondrial gene expression result (SIRT1 MEF cells) is recorded as “largely blunted”. Besides, the PGC-1α acetylation levels result (SIRT1−/− MEFs) is on record as “totally unable to decrease PGC-1α acetylation levels”.
